Where two headings read alike, the source gives them in different places.
Assays:
Type in all cases: cell-based
C8166 cells = test: Cytotoxicity test on C8166 host cell (MTT colorimetry); details: 3 days
Procedure: (§1) Cytotoxicity Test of the Compounds 5-12 Obtained in the Above Examples on C8166 Host Cell 100 μL of 4×10^5/mL C8166 cell suspension was mixed with different candidate compound solutions. Set three repeated wells. Meanwhile, set compound-free control wells. Culture was conducted at 37° C. and 5% CO2 for three days. Cell toxicity was tested using MTT colorimetry. OD value was tested using ELX800 ELISA instrument, with the measurement wavelength of 595 nm and the reference wavelength of 630 nm. […] Calculation method and formula: dose-response curve was plotted according to the experimental results; according to Reed & Muench method, 50% effective concentration (EC50) to inhibit viruses, 50% Cytotoxic Concentration (CC50) and anti-HIV-1 activity in the Therapeutic Index (TI) were calculated according to the formula: TI=CC50/EC50.

HIV-1IIIB = test: Inhibition test on HIV-1IIIB induced cytopathic effect (syncytium formation) of C8166; details: for EC50: Human immunodeficiency virus 1, C8166, 72 h, HIV-1IIIB in C8166 cells, 3 days; for Therapeutic index (TI): TI=CC50/EC50; for anti-HIV-1 activity (in words): comment on Table 1, relative to Compound 5
Procedure: Inhibition Test of the Compounds 5-12 Obtained in the Above Examples on HIV-1IIIB Induced Cytopathic Effect (CPE) of C8166 8×10^5/mL C8166 cell suspension was inoculated in 50 μL/well into a 96-well cell culture plate containing compound diluted in multiple proportions in 100 μL/well, to which was then added 50 μL of HIV-1IIIB diluted supernatant (M.O.I. 0.0016). Set three repeated wells, at the same time, set normal cell control wells that are free of the compound. Culture was conducted at 37° C. and 5% CO2 for three days. Syncytium formation was counted using an inverted microscope (100×). EC50 (50% Effective Concentration), i.e., the concentration of the compound that inhibits 50% syncytium formation, was calculated. Calculation method and formula: dose-response curve was plotted according to the experimental results; according to Reed & Muench method, 50% effective concentration (EC50) to inhibit viruses, 50% Cytotoxic Concentration (CC50) and anti-HIV-1 activity in the Therapeutic Index (TI) were calculated according to the formula: TI=CC50/EC50.

[1] = Cytotoxicity test on C8166 host cell (MTT colorimetry); details: human, C8166 cells (T lymphocyte cell line)
Procedure: as §1

[2] = read-out: Syncytia inhibition (EC50) 2
[3] = read-out: Syncytia inhibition (EC50) 1

COC(=O)c1cc2c(c(OC)c1-c1ccc(N(C)C)cc1)OCO2 [Compound 5]
toxicity (CC50) 2 (C8166 cells): ≥ 411.41 µg/mL | EC50 (HIV-1IIIB; [2]): 0.14 µg/mL | Therapeutic index (TI) (HIV-1IIIB): >2840.91 | anti-HIV-1 activity (in words) (HIV-1IIIB): very significant anti-HIV-1 activity

COC(=O)c1cc2c(c(OC)c1-c1ccc(N(C)C)c(C)c1)OCO2 [Compound 6]
CC50 at 3 days ([1]; read-out: toxicity (CC50) 1): > 1250 µM | CC50 at 3 days ([1]; read-out: toxicity (CC50) 2): ≥ 358 µg/mL | EC50 (HIV-1IIIB; [3]): 0.49 µM | EC50 (HIV-1IIIB; [2]): 0.14 µg/mL | Therapeutic index (TI) (HIV-1IIIB): >2551.02

COC(=O)c1cc2c(c(OC)c1-c1ccc(N3CCOCC3)cc1)OCO2 [Compound 7]
CC50 at 3 days ([1]; read-out: toxicity (CC50) 1): 881 µM | CC50 at 3 days ([1]; read-out: toxicity (CC50) 2): 317 µg/mL | EC50 (HIV-1IIIB; [3]): 0.64 µM | EC50 (HIV-1IIIB; [2]): 0.23 µg/mL | Therapeutic index (TI) (HIV-1IIIB): 1376.35

COC(=O)c1cc2c(c(OC)c1-c1ccc(N(c3ccccc3)c3ccccc3)cc1)OCO2 [Compound 8]
CC50 at 3 days ([1]; read-out: toxicity (CC50) 1): 802 µM | CC50 at 3 days ([1]; read-out: toxicity (CC50) 2): 245 µg/mL | EC50 (HIV-1IIIB; [3]): 0.93 µM | EC50 (HIV-1IIIB; [2]): 0.28 µg/mL | Therapeutic index (TI) (HIV-1IIIB): 862.52

COc1c2c(cc(C(=O)O)c1-c1ccc(N(C)C)cc1)OCO2 [Compound 9]
CC50 at 3 days ([1]; read-out: toxicity (CC50) 1): 649 µM | CC50 at 3 days ([1]; read-out: toxicity (CC50) 2): 205 µg/mL | EC50 (HIV-1IIIB; [3]): > 25 µM | EC50 (HIV-1IIIB; [2]): ≥ 7.88 µg/mL | Therapeutic index (TI) (HIV-1IIIB): <25.97 | anti-HIV-1 activity (in words) (HIV-1IIIB): activity declined notably

COC(=O)c1cc2c(c(OC)c1-c1ccc(N(C)C)cc1)OCO2.Cl [Compound 10]
toxicity (CC50) 2 (C8166 cells): ≥ 456.38 µg/mL | EC50 (HIV-1IIIB; [3]): 0.42 µM | EC50 (HIV-1IIIB; [2]): 0.15 µg/mL | Therapeutic index (TI) (HIV-1IIIB): >2976.19 | anti-HIV-1 activity (in words) (HIV-1IIIB): activity was increased

Br.COC(=O)c1cc2c(c(OC)c1-c1ccc(N(C)C)cc1)OCO2 [Compound 11]
toxicity (CC50) 2 (C8166 cells): 29.43 µg/mL | EC50 (HIV-1IIIB; [2]): 0.26 µg/mL | Therapeutic index (TI) (HIV-1IIIB): 114.19

COC(=O)c1cc2c(c(OC)c1-c1ccc([N+](C)(C)Cc3ccccc3)cc1)OCO2.[Br-] [Compound 12]
CC50 at 3 days ([1]; read-out: toxicity (CC50) 1): 53.3 µM | CC50 at 3 days ([1]; read-out: toxicity (CC50) 2): 26.6 µg/mL | EC50 (HIV-1IIIB; [3]): 7.5 µM | EC50 (HIV-1IIIB; [2]): 3.74 µg/mL | Therapeutic index (TI) (HIV-1IIIB): 7.10

From patent US9328084B2, “Nitrogen-containing biphenyl compounds, pharmaceutical compositions of same, preparation methods and anti-HIV-1 uses thereof” (Kunming Institute of Botany, The Chinese Academy of Sciences, priority 2010, dated 2016)
